Measured values published in patent US9603364B2 (Dow AgroSciences LLC, priority 2013, dated 2017).

What was measured:
Assay in all cases: General post-emergent herbicidal activity, foliar application
Assay type in all cases: in vivo
[1] = tested on: Echinochloa crus-galli (L.) Beauv. (barnyardgrass); conditions: for pest or weed control at 70 g/ha: 70 g ai/ha; for pest or weed control at 140 g/ha: 140 g ai/ha; for GR80 Value ECHCG: calculated by probit analysis, dose for 80% visual injury, may be extrapolated
Experimental: (§1) A weighed amount, determined by the highest rate to be tested, of each test compound was placed in a 25 mL glass vial and was dissolved in 4 mL of a 97:3 v/v (volume/volume) mixture of acetone and dimethyl sulfoxide to obtain concentrated stock solutions which will be referred to as General Purpose Solvent. […] The concentrated stock solutions obtained were diluted with 20 mL of an aqueous mixture containing water, General Purpose Solvent, isopropyl alcohol, Atplus 411F crop oil concentrate, and Triton X-155 surfactant in a 46:42:12:1.0:0.02 v/v ratio to obtain spray solutions containing the highest application rates. Additional application rates were obtained by serial dilution of 12 mL of the high rate solution into a solution containing 2 mL of 97:3 v/v (volume/volume) mixture of acetone and dimethyl sulfoxide and 10 mL of an aqueous mixture containing water, General Purpose Solvent, isopropyl alcohol, Atplus 411F crop oil concentrate, and Triton X-155 surfactant in a 46:42:12:1.0:0.02 v/v ratio to obtain 1/2×, 1/4×, 1/8× and 1/16× rates of the high rate. […] Control plants were sprayed in the same manner with the solvent blank.
(§2) The treated plants and control plants were placed in a greenhouse as described above and watered by sub-irrigation to prevent wash-off of the test compounds. After 14 days, the condition of the test plants as compared with that of the untreated plants was determined visually and scored on a scale of 0 to 100 percent where 0 corresponds to no injury and 100 corresponds to complete kill.
(§3) By applying the well-accepted probit analysis as described by J. Berkson in […], 48, 565 (1953) and by D. Finney in “Probit Analysis” Cambridge University Press (1952), the dose response data gathered as expressed above can be used to calculate GR20, GR50 and GR80 values, which are defined as growth reduction factors that correspond to the effective dose of herbicide required to kill or control 20 percent, 50 percent or 80 percent, respectively, of a target plant. Data not expressed in Table A may have been used to calculate some of the GR80 values in Table B. In some cases, the GR80 values may be extrapolations calculated based on the slope of the dose response curve for individual compounds listed in Table B.

[2] = tested on: Chenopodium album L. (lambsquarters, common); conditions: for pest or weed control at 70 g/ha: 70 g ai/ha; for pest or weed control at 140 g/ha: 140 g ai/ha; for GR80 Value CHEAL: calculated by probit analysis, dose for 80% visual injury, may be extrapolated
Experimental: as §1, §2, §3

[3] = tested on: Viola tricolor L. (pansy); conditions: for pest or weed control at 70 g/ha: 70 g ai/ha; for pest or weed control at 140 g/ha: 140 g ai/ha; for GR80 Value VIOTR: calculated by probit analysis, dose for 80% visual injury, may be extrapolated
Experimental: as §1, §2, §3

[4] = tested on: Amaranthus retroflexus L. (pigweed, redroot); conditions: for pest or weed control at 70 g/ha: 70 g ai/ha; for pest or weed control at 140 g/ha: 140 g ai/ha; for GR80 Value AMARE: calculated by probit analysis, dose for 80% visual injury, may be extrapolated
Experimental: as §1, §2, §3

[5] = tested on: Helianthus annuus L. (sunflower, common); conditions: for pest or weed control at 70 g/ha: 70 g ai/ha; for pest or weed control at 140 g/ha: 140 g ai/ha; for GR80 Value HELAN: calculated by probit analysis, dose for 80% visual injury, may be extrapolated
Experimental: as §1, §2, §3

[6] = tested on: Euphorbia heterophylla L. (poinsettia, wild); conditions: for pest or weed control at 70 g/ha: 70 g ai/ha; for pest or weed control at 140 g/ha: 140 g ai/ha; for GR80 Value EPHHL: calculated by probit analysis, dose for 80% visual injury, may be extrapolated
Experimental: as §1, §2, §3

Oryza sativa L. (rice) = conditions: Oryza sativa, 336 h, scored after 14 days, read-out: % Visual Growth Reduction ORYSA; for plant injury at 70 g/ha: 70 g ai/ha; for plant injury at 140 g/ha: 140 g ai/ha
Experimental: as §1, §2

Zea mays L. (corn) = conditions: 336 h, scored after 14 days, read-out: % Visual Growth Reduction ZEAMX; for plant injury at 70 g/ha: 70 g ai/ha; for plant injury at 140 g/ha: 140 g ai/ha
Experimental: as §1, §2

[7] = Echinochloa crus-galli, 336 h, foliar post-emergent, scored after 14 days, read-out: % Visual Growth Reduction ECHCG
[8] = Chenopodium album, 336 h, foliar post-emergent, scored after 14 days, read-out: % Visual Growth Reduction CHEAL
[9] = Viola tricolor, 336 h, foliar post-emergent, scored after 14 days, read-out: % Visual Growth Reduction VIOTR
[10] = Amaranthus retroflexus, 336 h, foliar post-emergent, scored after 14 days, read-out: % Visual Growth Reduction AMARE
[11] = Helianthus annuus, 336 h, foliar post-emergent, scored after 14 days, read-out: % Visual Growth Reduction HELAN
[12] = Euphorbia heterophylla, 336 h, foliar post-emergent, scored after 14 days, read-out: % Visual Growth Reduction EPHHL

## COC(=O)c1nc(C(F)F)c(Cl)c(N)c1Cl [Compound F7, Methyl 4-amino-3,5-dichloro-6-(difluoromethyl)picolinate]
[1]; [7]
  pest or weed control at 70 g/ha: 0%
  pest or weed control at 140 g/ha: 0%
[1]; Echinochloa crus-galli, 336 h, 280 g ai/ha, foliar post-emergent, scored after 14 days, read-out: % Visual Growth Reduction ECHCG
  pest or weed control at 280 g/ha: 0%
[1]
  GR80 Value ECHCG: >280 g ai/ha
[2]; [8]
  pest or weed control at 70 g/ha: 0%
  pest or weed control at 140 g/ha: 0%
[2]; Chenopodium album, 336 h, 280 g ai/ha, foliar post-emergent, scored after 14 days, read-out: % Visual Growth Reduction CHEAL
  pest or weed control at 280 g/ha: 0%
[2]
  GR80 Value CHEAL: >280 g ai/ha
[3]; [9]
  pest or weed control at 70 g/ha: 0%
  pest or weed control at 140 g/ha: 0%
[3]; Viola tricolor, 336 h, 280 g ai/ha, foliar post-emergent, scored after 14 days, read-out: % Visual Growth Reduction VIOTR
  pest or weed control at 280 g/ha: 0%
[3]
  GR80 Value VIOTR: >280 g ai/ha
[4]; [10]
  pest or weed control at 70 g/ha: 75%
  pest or weed control at 140 g/ha: 90%
[4]; Amaranthus retroflexus, 336 h, 280 g ai/ha, foliar post-emergent, scored after 14 days, read-out: % Visual Growth Reduction AMARE
  pest or weed control at 280 g/ha: 100%
[4]
  GR80 Value AMARE: 84.2 g ai/ha
[5]; [11]
  pest or weed control at 70 g/ha: 60%
  pest or weed control at 140 g/ha: 80%
[5]; Helianthus annuus, 336 h, 280 g ai/ha, foliar post-emergent, scored after 14 days, read-out: % Visual Growth Reduction HELAN
  pest or weed control at 280 g/ha: 90%
[5]
  GR80 Value HELAN: 145 g ai/ha
[6]; [12]
  pest or weed control at 70 g/ha: 90%
  pest or weed control at 140 g/ha: 100%
[6]; Euphorbia heterophylla, 336 h, 280 g ai/ha, foliar post-emergent, scored after 14 days, read-out: % Visual Growth Reduction EPHHL
  pest or weed control at 280 g/ha: 100%
[6]
  GR80 Value EPHHL: 17.5 g ai/ha
Oryza sativa L. (rice)
  plant injury at 70 g/ha: 0%
  plant injury at 140 g/ha: 0%
Oryza sativa L. (rice); 280 g ai/ha
  plant injury at 280 g/ha: 0%
Zea mays L. (corn)
  plant injury at 70 g/ha: 0%
  plant injury at 140 g/ha: 0%
Zea mays L. (corn); 280 g ai/ha
  plant injury at 280 g/ha: 10%

## COC(=O)c1nc(C(C)(C)F)c(F)c(N)c1Cl [Compound F8, Methyl 4-amino-3-chloro-5-fluoro-6-(2-fluoropropan-2-yl)picolinate]
[1]; Echinochloa crus-galli, 336 h, 40 g ai/ha, foliar post-emergent, scored after 14 days, read-out: % Visual Growth Reduction ECHCG
  pest or weed control at 40 g/ha: 0%
[1]; Echinochloa crus-galli, 336 h, 80 g ai/ha, foliar post-emergent, scored after 14 days, read-out: % Visual Growth Reduction ECHCG
  pest or weed control at 80 g/ha: 0%
[1]; Echinochloa crus-galli, 336 h, 160 g ai/ha, foliar post-emergent, scored after 14 days, read-out: % Visual Growth Reduction ECHCG
  pest or weed control at 160 g/ha: 50%
[1]
  GR80 Value ECHCG: 213 g ai/ha
[2]; Chenopodium album, 336 h, 40 g ai/ha, foliar post-emergent, scored after 14 days, read-out: % Visual Growth Reduction CHEAL
  pest or weed control at 40 g/ha: 90%
[2]; Chenopodium album, 336 h, 80 g ai/ha, foliar post-emergent, scored after 14 days, read-out: % Visual Growth Reduction CHEAL
  pest or weed control at 80 g/ha: 90%
[2]; Chenopodium album, 336 h, 160 g ai/ha, foliar post-emergent, scored after 14 days, read-out: % Visual Growth Reduction CHEAL
  pest or weed control at 160 g/ha: 90%
[2]
  GR80 Value CHEAL: 36.9 g ai/ha
[3]; Viola tricolor, 336 h, 40 g ai/ha, foliar post-emergent, scored after 14 days, read-out: % Visual Growth Reduction VIOTR
  pest or weed control at 40 g/ha: 10%
[3]; Viola tricolor, 336 h, 80 g ai/ha, foliar post-emergent, scored after 14 days, read-out: % Visual Growth Reduction VIOTR
  pest or weed control at 80 g/ha: 50%
[3]; Viola tricolor, 336 h, 160 g ai/ha, foliar post-emergent, scored after 14 days, read-out: % Visual Growth Reduction VIOTR
  pest or weed control at 160 g/ha: 70%
[3]
  GR80 Value VIOTR: 185 g ai/ha
[4]; Amaranthus retroflexus, 336 h, 40 g ai/ha, foliar post-emergent, scored after 14 days, read-out: % Visual Growth Reduction AMARE
  pest or weed control at 40 g/ha: 90%
[4]; Amaranthus retroflexus, 336 h, 80 g ai/ha, foliar post-emergent, scored after 14 days, read-out: % Visual Growth Reduction AMARE
  pest or weed control at 80 g/ha: 100%
[4]; Amaranthus retroflexus, 336 h, 160 g ai/ha, foliar post-emergent, scored after 14 days, read-out: % Visual Growth Reduction AMARE
  pest or weed control at 160 g/ha: 100%
[4]
  GR80 Value AMARE: 25.1 g ai/ha
[5]; Helianthus annuus, 336 h, 40 g ai/ha, foliar post-emergent, scored after 14 days, read-out: % Visual Growth Reduction HELAN
  pest or weed control at 40 g/ha: 90%
[5]; Helianthus annuus, 336 h, 80 g ai/ha, foliar post-emergent, scored after 14 days, read-out: % Visual Growth Reduction HELAN
  pest or weed control at 80 g/ha: 90%
[5]; Helianthus annuus, 336 h, 160 g ai/ha, foliar post-emergent, scored after 14 days, read-out: % Visual Growth Reduction HELAN
  pest or weed control at 160 g/ha: 90%
[5]
  GR80 Value HELAN: 18.6 g ai/ha
[6]; Euphorbia heterophylla, 336 h, 40 g ai/ha, foliar post-emergent, scored after 14 days, read-out: % Visual Growth Reduction EPHHL
  pest or weed control at 40 g/ha: 90%
[6]; Euphorbia heterophylla, 336 h, 80 g ai/ha, foliar post-emergent, scored after 14 days, read-out: % Visual Growth Reduction EPHHL
  pest or weed control at 80 g/ha: 100%
[6]; Euphorbia heterophylla, 336 h, 160 g ai/ha, foliar post-emergent, scored after 14 days, read-out: % Visual Growth Reduction EPHHL
  pest or weed control at 160 g/ha: 100%
[6]
  GR80 Value EPHHL: 17.9 g ai/ha
Oryza sativa L. (rice); 40 g ai/ha
  plant injury at 40 g/ha: 0%
Oryza sativa L. (rice); 80 g ai/ha
  plant injury at 80 g/ha: 0%
Oryza sativa L. (rice); 160 g ai/ha
  plant injury at 160 g/ha: 8%
Zea mays L. (corn); 40 g ai/ha
  plant injury at 40 g/ha: 0%
Zea mays L. (corn); 80 g ai/ha
  plant injury at 80 g/ha: 0%
Zea mays L. (corn); 160 g ai/ha
  plant injury at 160 g/ha: 0%

## COC(=O)c1nc(C(C)(C)F)cc(N)c1Cl [Compound F9, methyl 4-amino-3-chloro-6-(2-fluoropropan-2-yl)picolinate]
[1]; [7]
  pest or weed control at 70 g/ha: 0%
  pest or weed control at 140 g/ha: 0%
[1]
  GR80 Value ECHCG: >140 g ai/ha
[2]; [8]
  pest or weed control at 70 g/ha: 70%
  pest or weed control at 140 g/ha: 85%
[2]
  GR80 Value CHEAL: 110 g ai/ha
[3]; [9]
  pest or weed control at 70 g/ha: 40%
  pest or weed control at 140 g/ha: 30%
[3]
  GR80 Value VIOTR: >140 g ai/ha
[4]; [10]
  pest or weed control at 70 g/ha: 100%
  pest or weed control at 140 g/ha: 100%
[4]
  GR80 Value AMARE: 13.7 g ai/ha
[5]; [11]
  pest or weed control at 70 g/ha: 50%
  pest or weed control at 140 g/ha: 50%
[5]
  GR80 Value HELAN: 237 g ai/ha
[6]; [12]
  pest or weed control at 70 g/ha: 85%
  pest or weed control at 140 g/ha: 100%
[6]
  GR80 Value EPHHL: 49.4 g ai/ha
Oryza sativa L. (rice)
  plant injury at 70 g/ha: 0%
  plant injury at 140 g/ha: 0%
Zea mays L. (corn)
  plant injury at 70 g/ha: 0%
  plant injury at 140 g/ha: 15%
